Experimental data as given in patent US6203822A, “Gallium-containing compounds for the treatment of infections caused by intracellular pathogens and pathogens causing chronic pulmonary infection” (priority 1996, dated 2001).
Where two headings read alike, the source gives them in different places.

Columns and labels:
[1] = test system: M. tuberculosis in human alveolar macrophages; assay: M. tuberculosis in human alveolar macrophages, gallium nitrate with or without anti-tuberculous antibiotics; assay type: cell-based; conditions: full doses of first line antibiotics, by 24 h
Description: The gallium-containing compounds can also be tested for their ability to inhibit intracellular pathogens in tissue culture assays. In general, in these assays, the macrophages are placed in culture and incubated with the intracellular pathogen at an approximate cell to pathogen ratio of preferably at least 1:1 to about 1:5 cells:pathogen. Exemplary culture conditions are provided in the assays detailed in the Examples. For assays assessing M. tuberculosis infection, freshly adherent monocytes, 12 day-old adherent MDMs, or freshly adherent alveolar macrophages are incubated with M. tuberculosis, MAI or other intracellular bacteria at a ratio of about 1:1 to about 1:5 (phagocyte:bacterium). For M. tuberculosis or MAI, the bacteria are incubated with the phagocyte for 2 hr at 37° C. in RPMI/HEPES media with 2.5% serum or human serum albumin (serum-free). The cells are washed to remove non-adherent bacteria and monolayers are replated with RPMI containing 1% autologous serum (to maintain phagocyte viability but not to sustain extracellular growth of bacteria). Gallium-containing compounds, such as gallium nitrate, with, or without, other agents such as antibiotics, cytokines etc., are added about 24 hr. later and mycobacterial growth in cell lysates is then assessed over the next several days either by the radiometric BACTEC system or by colony-forming units on agarose plates. In each experiment, growth is assessed relative to control monolayers where no drug has been added.
Human alveolar macrophages were purified from healthy non-smoking adult volunteers and placed in monolayer culture. M. tuberculosis infected cells were treated with gallium nitrate as described in Example 2. Antituberculous antibiotics were added to wells alone or with gallium nitrate at 500 μM 24 h after M. tuberculosis infection. Antituberculous antibiotics tested included streptomycin (2.016 μg/ml), isoniazid (0.1 μg/ml), rifampin (2.0 μg/ml), and ethambutol (2.52 μg/ml) and the combination of antibiotics was denoted as SIRE. Antibiotics were obtained in lyophilized form from BACTEC. The antibiotics were reconstituted in sterile water per package instructions. With reference to FIG. 3, SIRE refers to combinations of streptomycin, isoniazid, rifampin and ethambutol while IR refers to combinations of Isoniazid and rifampin.
Infected macrophages were cultured for 24 h, 48 h, or 120 h. Growth index readings of combined supernatants and cell lysates were measured in the BACTEC 460 TB system. […] Since these antibiotics have a number of unpleasant side effects that are reduced at reduced concentrations of the drugs, combined therapies that permit these antibiotics to be administered at lower doses when combined with gallium nitrate is significant and may help to promote better drug compliance in patients infected with M. tuberculosis.

[2] = test system: M. tuberculosis strain H37Ra; assay type: cell-based
[3] = test system: macrophage monolayers (MDMs); assay: Gallium toxicity in uninfected MDM monolayers; assay type: cell-based, human; conditions: in most cases, equivalent to untreated controls
Description: To test the potential toxicity of gallium nitrate on the standard macrophage monolayers (MDMs) used in the assays described in this invention, uninfected MDM monolayers were incubated with various concentrations of gallium nitrate in the range used in the studies described in Examples 2 and 3.
There was no immediate difference in monolayer density between MDM monolayers with and without gallium nitrate treatment up to a gallium concentration of 2 mM. Results were based on counting napthol blue macrophage stained nuclei from the monolayer. These numbers directly correlate with the number of cells present. In most cases the integrity of the MDM monolayer in the presence of gallium was maintained for up to 37 days, equivalent to untreated, uninfected control cultures.

[4] = test system: bone cell; conditions: cancer patients, large scale clinical studies (Todd et al.); cited from earlier work
[5] = known from literature; cited from earlier work
[6] = test system: M. tuberculosis in macrophages; assay type: cell-based
[7] = test system: macrophage ferritin and transferrin receptors; conditions: Byrd, et al.; cited from earlier work

Molecule: NNC(=O)c1ccncc1 [isoniazid]
- growth inhibition by full doses of first line antibiotics [1]: quite potent

Molecule: gallium transferrin: Human apotransferrin mixed 1:1 (by molar ratio) with gallium
- concentration of gallium with marked inhibition of growth ([2]; growth index Day 10, broth culture, apotransferrin mixed 1:1 with gallium): 75 µM

Molecule: CC[C@@H](CO)NCCN[C@@H](CC)CO [ethambutol]
- growth inhibition by full doses of first line antibiotics [1]: quite potent

Molecule: CO[C@H]1/C=C/O[C@@]2(C)Oc3c(C)c(O)c4c(O)c(c(/C=N/N5CCN(C)CC5)c(O)c4c3C2=O)NC(=O)/C(C)=C\C=C\[C@H](C)[C@H](O)[C@@H](C)[C@@H](O)[C@@H](C)[C@H](OC(C)=O)[C@@H]1C [rifampin]
- growth inhibition by full doses of first line antibiotics [1]: quite potent

Molecule: [H]/N=C(/N)N[C@H]1[C@H](O)[C@@H](O)[C@H](O[C@@H]2O[C@@H](C)[C@](O)(C=O)[C@H]2O[C@@H]2O[C@@H](CO)[C@H](O)[C@@H](O)[C@@H]2NC)[C@@H](N/C(N)=N\[H])[C@@H]1O [streptomycin]
- growth inhibition by full doses of first line antibiotics [1]: quite potent

Molecule: [Ga] [gallium]
- time integrity of MDM monolayer maintained in presence of gallium [3]: up to 37 days
- effect on bone cell morphology or viability [4]: did not affect bone cell morphology or viability
- tissue accumulation [5]: accumulate in cells of mononuclear origin in the liver, kidney, spleen and lymphatic system

Molecule: interferon-γ: Human interferon-γ (Genzyme, Cambridge, Mass.), cytokine
- augmentation of gallium nitrate growth inhibition ([6]; IFN-γ in combination with 0 to about 400 μM gallium nitrate): at least 50%
- augmentation of gallium nitrate growth inhibition ([6]; interferon-γ various concentrations (0-1000U), gallium nitrate at 100 μM): ≥ 50%
- effect on expression of transferrin receptors [7]: down regulate expression of transferrin receptors
- effect on macrophage ferritin levels [7]: down regulate macrophage ferritin levels

Molecule: transferrin: control cultures were treated with transferrin alone; Human apotransferrin (Sigma Chemicals)
- bacterial growth inhibition, control culture ([2]; transferrin alone): no inhibition in bacterial growth
